Source: US20230365563A1, “QUINAZOLINE COMPOUND AND APPLICATION THEREOF” (SHANGHAI PHARMACEUTICALS HOLDING CO., LTD., priority 2020, published 2023)
Where a name gives a salt, the structure may show the parent alone.

Experiments:
[1] = biological target: T1, KRAS-G12D and SOS1 (Homo sapiens, UniProt P01116, G12D); assay: Inhibition of KRAS-G12D/SOS1 binding (Cisbio binding kit, 665/615 ratio), Effect Embodiment A; details: read-out: GTP-KRAS-G12D:SOS1 IC50
T1 construct: purchased
How it was run: (§1)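 Compounds underwent 3-fold dilution from their storage solutions (11 points), were transferred to assay wells in duplicate with DMSO held at 1% final, and were briefly centrifuged.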

[2] = biological target: T2, KRAS_G12D and cRAF (Homo sapiens, UniProt P01116, G12D); assay: Inhibition of KRAS_G12D/cRAF binding (Cisbio binding kit, 665/615 ratio), Effect Embodiment B; details: read-out: GTP-KRAS-G12D:CRAF IC50
T2 construct: purchased
How it was run: as §1

[3] = biological target: T3, KRAS_WT and SOS1 (Homo sapiens, UniProt P01116); assay: Inhibition of KRAS_WT/SOS1 binding (Cisbio binding kit, 665/615 ratio), Effect Embodiment C; details: read-out: GTP-KRAS-WT:SOS1 IC50
T3 construct: purchased
How it was run: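 Compounds tested as 3-fold, 11-point dilutions in duplicate at 1% DMSO final against the KRAS_WT/SOS1 binding system. IC50 derived by nonlinear regression fit.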

T3 sequence (P01116 1-188 isoform P01116-2): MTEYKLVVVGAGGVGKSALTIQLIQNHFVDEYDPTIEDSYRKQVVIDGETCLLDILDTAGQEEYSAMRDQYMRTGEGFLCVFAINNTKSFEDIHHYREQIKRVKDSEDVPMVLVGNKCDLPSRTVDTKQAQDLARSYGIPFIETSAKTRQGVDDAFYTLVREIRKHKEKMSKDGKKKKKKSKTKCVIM
T2 sequence (P01116 1-188 isoform P01116-2 G12D): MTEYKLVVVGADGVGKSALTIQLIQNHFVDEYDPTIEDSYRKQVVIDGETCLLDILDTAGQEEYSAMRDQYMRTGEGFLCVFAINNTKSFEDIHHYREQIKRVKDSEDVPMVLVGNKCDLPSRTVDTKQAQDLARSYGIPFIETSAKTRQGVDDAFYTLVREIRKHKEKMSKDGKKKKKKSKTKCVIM
T1 sequence (P01116 1-188 isoform P01116-2 G12D): as above

SMILES	IC50 [1]	IC50 [2]	IC50 [3]
CN(C)C1CCC(Oc2nc(N3CC4CCC(C3)N4)c3cc(Cl)c(-c4cc(O)cc5ccccc45)c(F)c3n2)C1 (single isomer, unassigned) [Compound 70d, 4-((S or R)-4-((1R,5S)-3,8-diazabicyclo[3.2.1]octan-3-yl)-6-chloro-2-((1R,3R or 1S,3S)-3-(dimethylamino)cyclopentyl)oxy)-8-fluoroquinazolin-7-yl)naphthalen-2-ol dihydrochloride]	0.0939 µM	0.356 µM	60.5 µM
CC(C)(COc1nc(N2CC3CCC(C2)N3)c2cc(Cl)c(-c3cc(O)cc4ccccc34)c(F)c2n1)CN1CCCC1 (single isomer, unassigned) [Compound 102, 4-((S or R)-4-((1R,5S)-3,8-diazabicyclo[3.2.1]octan-3-yl)-6-chloro-2-(2,2-dimethyl-3-(pyrrolidin-1-yl)propoxy)-8-fluoroquinazolin-7-yl)naphthalen-2-ol dihydrochloride]	0.0198 µM	0.039 µM	1.1 µM
Oc1cc(-c2c(Cl)cc3c(N4CC5CCC(C4)N5)nc(OCCN4CCCCC4)nc3c2F)c2ccccc2c1 (single isomer, unassigned) [Compound 114, 4-((S or R)-4-((1R,5S)-3,8-diazabicyclo[3.2.1]octan-3-yl)-6-chloro-8-fluoro-2-(2-(piperidin-1-yl)ethoxy)quinazolin-7-yl)naphthalen-2-ol dihydrochloride]	0.0372 µM	0.1 µM	4.53 µM
CN1CCCC[C@H]1COc1nc(N2CC3CCC(C2)N3)c2cc(Cl)c(-c3cc(O)cc4ccccc34)c(F)c2n1 (single isomer, unassigned) [Compound 56a, 4-((S or R)-4-((1R,5S)-3,8-diazabicyclo[3.2.1]octan-3-yl)-6-chloro-8-fluoro-2-((S)-1-methylpiperidin-2-yl)methoxy)quinazolin-7-yl)naphthalen-2-ol dihydrochloride]	0.0641 µM	0.461 µM	14 µM
CN(C)C1CN(c2nc(N3CC4(CCNC4)C3)c3cc(Cl)c(-c4cc(O)cc5ccccc45)c(F)c3n2)C1 (single isomer, unassigned) [Compound 8a, (R or S)-4-(6-chloro-2-(3-(dimethylamino)azetidin-1-yl)-8-fluoro-4-(2,6-diazaspiro[3.4]octan-2-yl)quinazolin-7-yl)naphthalen-2-ol]	0.461 µM	1.17 µM	5.34 µM
Oc1cc(-c2c(Cl)cc3c(N4CC5CCC(C4)N5)nc(OCCCN4CCC4)nc3c2F)c2ccccc2c1 (single isomer, unassigned) [Compound 59a, 4-((S or R)-2-(3-(azetidin-1-yl)propoxy)-4-((1R,5S)-3,8-diazabicyclo[3.2.1]octan-3-yl)-6-chloro-8-fluoroquinazolin-7-yl)naphthalen-2-ol]	0.0454 µM	0.182 µM	2.08 µM
NCCCCOc1nc(N2CC3CCC(C2)N3)c2cc(Cl)c(-c3cc(O)cc4ccccc34)c(F)c2n1 (single isomer, unassigned) [Compound 95, 4-((S or R)-2-(4-aminobutoxy)-4-((1R,5S)-3,8-diazabicyclo[3.2.1]octan-3-yl)-6-chloro-8-fluoroquinazolin-7-yl)naphthalen-2-ol dihydrochloride]	0.0482 µM	0.284 µM	6.67 µM
CN(C)C1CN(c2nc(N3C[C@H]4CC[C@@H](C3)N4)c3cc(Cl)c(-c4cc(O)cc5ccccc45)c(F)c3n2)C1 (single isomer, unassigned) [Compound 5a, (R or S)-4-(4-((1R,5S)-3,8-diazabicyclo [3.2.1]octan-3-yl)-6-chloro-2-(3-(dimethylamino)azetidin-1-yl)-8-fluoro-quinazolin-7-yl)naphthalen-2-ol]	0.0414 µM	0.251 µM	1.81 µM
Cc1cccc2cc(O)cc(-c3c(Cl)cc4c(N5CC6CCC(C5)N6)nc(N5CC(N(C)C)C5)nc4c3F)c12 (single isomer, unassigned) [Compound 47a, 4-((S or R)-4-((1R,5S)-3,8-diazabicyclo[3.2.1]octan-3-yl)-6-chloro-2-(3-(dimethylamino)azetidin-1-yl)-8-fluoroquinazolin-7-yl)-5-methylnaphthalen-2-ol]	0.208 µM	0.824 µM	5.7 µM
Oc1cc(-c2c(Cl)cc3c(N4CC5CCC(C4)N5)nc(OCCCN4CCNCC4)nc3c2F)c2ccccc2c1 (single isomer, unassigned) [Compound 92, 4-((S or R)-4-((1R,5S)-3,8-diazabicyclo[3.2.1]octan-3-yl)-6-chloro-8-fluoro-2-(3-(piperazin-1-yl)propoxy)quinazolin-7-yl)naphthalen-2-ol dihydrochloride]	0.0374 µM	0.139 µM	4.71 µM

The remaining lines, values ahead:

IC50 [1]	IC50 [2]	IC50 [3]	SMILES
0.0176 µM	0.0386 µM	0.122 µM	N#Cc1cccc2cc(O)cc(-c3c(F)cc4c(N5CC6CCC(C5)N6)nc(OCCCN5C6CCC5COC6)nc4c3F)c12 (single isomer, unassigned) [Compound 278a, 8-((7S or 7R)-2-(3-(3-oxa-8-azabicyclo[3.2.1]octan-8-yl)propoxy)-4-((1R,5S)-3,8-diazabicyclo[3.2.1]octan-3-yl)-6,8-difluoroquinazolin-7-yl)-6-hydroxy-1-naphthonitrile diformate]
0.0169 µM	0.0181 µM	0.233 µM	CN(C)CC1(COc2nc(N3CC4CCC(C3)N4)c3cc(Cl)c(-c4cc(O)cc5ccccc45)c(F)c3n2)CC1 (single isomer, unassigned) [Compound 186, 4-((R or S)-4-((1R,5S)-3,8-diazabicyclo[3.2.1]octan-3-yl)-6-chloro-2-((1-((dimethylamino)methyl)cyclopropyl)methoxy)-8-fluoroquinazolin-7-yl)naphthalen-2-ol diformate]
0.063 µM	0.489 µM	1.98 µM	Oc1cc(-c2cc(F)c3c(N4CC5CCC(C4)N5)nc(OCCCN4C5CCC4COC5)nc3c2F)c2ccccc2c1 [Compound 253, 4-(2-(3-(3-Oxa-8-azabicyclo[3.2.1]octan-8-yl)propoxy)-4-((1R,5S)-3,8-diazabicyclo[3.2.1]octan-3-yl)-5,8-difluoroquinazolin-7-yl)naphthalen-2-ol formate]
0.0767 µM	0.259 µM	6.34 µM	Oc1cc(-c2c(Cl)cc3c(N4CC5CCC(C4)N5)nc(OCCN4CCCC(F)C4)nc3c2F)c2ccccc2c1 (single isomer, unassigned) [Compound 267a, 4-((R or S)-4-((1R,5S)-3,8-diazacyclo[3.2.1]octan-3-yl)-6-chloro-8-fluoro-2-(2-((S or R)-3-fluoropiperidin-1-yl)ethoxy)quinazolin-7-yl)naphthalen-2-ol formate]
0.0396 µM	0.0969 µM	0.854 µM	Cc1cc2c(N3CC4CCC(C3)N4)nc(OCCCN(C)C)nc2c(F)c1-c1cc(O)cc2ccccc12 (single isomer, unassigned) [Compound 149a, 4-((R or S)-4-((1R,5S)-3,8-diazabicyclo[3.2.1]octan-3-yl)-2-(3-(dimethylamino)propoxy)-8-fluoro-6-methylquinazolin-7-yl)naphthalen-2-ol hydrochloride]
0.0193 µM	0.0187 µM	0.0854 µM	C[C@H]1C[C@@H](COc2nc(N3CC4CCC(C3)N4)c3cnc(-c4cc(O)cc5ccccc45)c(F)c3n2)N(C)C1 [Compound 133, 4-(4-((1R,5S)-3.8-diazabicyclo[3.2.1]octan-3-yl)-2-((2S,4S)-1,4-dimethylpyrrolidin-2-yl)methoxy)-8-fluoropyridinyl[4,3-d]pyrimidin-7-yl)naphthalen-2-ol trifluoroacetate]
0.0648 µM	0.296 µM	> 10 µM	CO[C@@H](COc1nc(N2CC3CCC(C2)N3)c2cc(Cl)c(-c3cc(O)cc4ccccc34)c(F)c2n1)CN1C2CCCC1CC2 (single isomer, unassigned) [Compound 257, (4S or 4R)-4-(2-((2R)-3-(8-azabicyclo[3.2.1]octan-8-yl)-2-methoxypropoxy)-4-((1R,5S)-3,8-diazabicyclo[3.2.1]octan-3-yl)-6-chloro-8-fluoroquinazolin-7-yl)naphthalen-2-ol formate]
0.0117 µM	0.0321 µM	0.342 µM	Oc1cc(-c2c(Cl)cc3c(N4CC5CCC(C4)N5)nc(OCC4CCC5COCCN5C4)nc3c2F)c2ccccc2c1 (single isomer, unassigned) [Compound 264a, 4-((S or R)-4-((1R,5S)-3,8-diazacyclo[3.2.1]octan-3-yl)-6-chloro-8-fluoro-2-((7S or 7R, 9aS or 9aR)-octahydropyridine[2,1-c][1,4]oxazin-7-yl)methoxy)quinazolin-7-yl)naphthalen-2-ol formate]
0.0274 µM	0.0324 µM	0.39 µM	CN1CCC[C@H]1COc1nc(N2CC3CCC(C2)N3)c2cc(F)c(-c3cc(O)cc4ccccc34)c(F)c2n1 [Compound 160, 4-(4-((1R,5S)-3,8-diazabicyclo[3.2.1]octan-3-yl)-6,8-difluoro-2-((S)-1-methylpyrrolidin-2-yl)methoxy)quinazolin-7-yl)naphthalen-2-ol dihydrochloride]
0.0231 µM	0.118 µM	0.863 µM	Oc1cc(-c2c(Cl)cc3c(N4CC5CCC(C4)N5)nc(OCCCN4CC5(CCOC5)C4)nc3c2F)c2ccccc2c1 (single isomer, unassigned) [Compound 263, 4-((S or R)-2-(3-(6-oxa-2-azaspiro[3.4]octan-2-yl)propoxy)-4-((1R,5S)-3,8-diazacyclo[3.2.1]octan-3-yl)-6-chloro-8-fluoroquinazolin-7-yl)naphthalen-2-ol formate]
